The values that follow come from ChEMBL document CHEMBL2375347, “Discovery of adamantane based highly potent HDAC inhibitors” (Bioorg Med Chem Lett, 2013).

pIC50: −log10 of the molar value. Where only a bound is given, the exact number is not on record here.

The test system of data set [1] is NCI-H460. Nature of the data set: Cytotoxicity against human NCI-H460 cells by MTT assay. It is filed as functional. (In general: Tetrazolium assays rely on reduction of a dye to a coloured formazan, in cell work by metabolically active cells.)
A short description of data set [2]: Inhibition of mouse liver HDAC by fluorescence assay.
The next data set relates to U-251. Nature of the data set: Cytotoxicity against human U251 cells by MTT assay. It is filed as functional.
For another data set, the system named is HCT-116. Nature of the data set: Cytotoxicity against human HCT116 cells by MTT assay. The class given is functional.
In data set [3] the test system is NCI-H460. In words: Antitumor activity against human NCI-H460 cells xenografted in SCID mouse assessed as tumor growth inhibition at 5 mg/kg, ip qd for 21 days. It is filed as functional. The settings on record: 504 h, route intraperitoneal, read-out: TGI. For orientation: A xenograft is tissue or cells of one species grown in another, often human tumour cells in immunodeficient mice.

Data set [4] is described as follows: Toxicity in SCID mouse xenografted with human NCI-H460 cells. It is filed as organism-based. The settings on record: in vivo.
For another data set, the system named is Mus musculus. Nature of the data set: Toxicity in SCID mouse xenografted with human NCI-H460 cells assessed as loss in body weight at 5 mg/kg, ip qd for 21 days relative to control. The conditions noted are these: in vivo, 504 h. Details: dose 5 mg/kg, route intraperitoneal. The class given is organism-based.

As to `O=C(/C=C/c1ccc(CNC23CC4CC(CC(Cl)(C4)C2)C3)cc1)NO`, the GI50 with NCI-H460 [1] came to 4000 nM; in the data set on U-251, 14000 nM; in the data set with HCT-116, 11000 nM. The pIC50 in data set [2] is 7.40.

Take `O=C(/C=C/c1ccc(CNC(=O)C23CC4CC(CC(C4)C2)C3)cc1)NO`: the GI50 with NCI-H460 [1] stood at 100 nM; with U-251, 170 nM; in the data set with HCT-116, 100 nM. Also, the pIC50 in data set [2] is 7.17.

As for `O=C(/C=C/c1ccc(CNCC23CC4CC(CC(C4)C2)C3)cc1)NO`, the results for the GI50 with NCI-H460 [1], in the data set on U-251 and with HCT-116 were 300 nM, 800 nM and 500 nM, respectively. In addition, the pIC50 in data set [2] is 8.96.

As to `O=C(/C=C/c1ccc(CNC(=O)C23CC4CC(CC(F)(C4)C2)C3)cc1)NO`, the GI50 with NCI-H460 [1] amounted to 500 nM; with U-251 it was 1900 nM; in the data set with HCT-116, 500 nM. The same compound showed a pIC50 in data set [2] of 7.11.

Turning to `O=C(/C=C/c1ccc(CNCC23CC4CC(CC(F)(C4)C2)C3)cc1)NO`, the GI50 came out at 30 nM in the data set with NCI-H460 [1], 180 nM with U-251 and 30 nM in the data set on HCT-116. The compound further gave a pIC50 in data set [2] of 8.22.

For `O=C(/C=C/c1ccc(CNC(=O)CC23CC4CC(CC(C4)C2)C3)cc1)NO`, the GI50 came to 1300 nM in the data set on NCI-H460 [1], 1600 nM with U-251 and 1100 nM in the data set on HCT-116. For the same compound, the pIC50 in data set [2] was 8.74.

As to `O=C(/C=C/c1ccc(CNCCC23CC4CC(CC(C4)C2)C3)cc1)NO`, the figures for the GI50 in the data set on NCI-H460 [1], with U-251 and in the data set on HCT-116 were 1100 nM, 1300 nM and 450 nM, respectively. In data set [2], this compound gave a negative-log IC50 (pIC50) of 9.05.

With `O=C(/C=C/c1ccc(CNC2C3CC4CC(C3)CC2C4)cc1)NO` (stereo unspecified), the GI50 in the data set on NCI-H460 [1] was 70 nM; in the data set with U-251, 170 nM; in the data set on HCT-116 it was 80 nM. The compound also gave a pIC50 in data set [2] of 7.22.

Take `O=C(/C=C/c1ccc(CNC(=O)CC2C3CC4CC(C3)CC2C4)cc1)NO` (stereo unspecified): the GI50 in the data set with NCI-H460 [1] was found to be 400 nM; in the data set with U-251, 260 nM; with HCT-116, 500 nM. In data set [2], this compound gave a pIC50 of 8.10.

In the case of `O=C(/C=C/c1ccc(CNCCC2C3CC4CC(C3)CC2C4)cc1)NO` (stereo unspecified), the GI50 came to 10 nM with NCI-H460 [1], 50 nM in the data set with U-251 and 60 nM with HCT-116. In data set [2], the pIC50 is 9.55.

In the case of `O=C(/C=C/c1ccc(CN2CC3CC4CC(C3)CC2C4)cc1)NO`, the GI50 in the data set with NCI-H460 [1] turned out to be 4900 nM; with U-251, 1700 nM; in the data set with HCT-116 it was 1800 nM. This compound showed a pIC50 in data set [2] of 6.96.

For `O=C(/C=C/c1ccc(CNC(=O)C23CC4CC(CC2C4)C3)cc1)NO`, the results for the GI50 in the data set with NCI-H460 [1], in the data set on U-251 and in the data set on HCT-116 were 350 nM, 600 nM and 380 nM, respectively. Besides, the pIC50 in data set [2] was 7.60.

As for `O=C(/C=C/c1ccc(CNCC23CC4CC(CC2C4)C3)cc1)NO`, the inhibition in vivo at 5 mg/kg with NCI-H460 [3] was determined as 45%. Besides, the GI50 with NCI-H460 [1] was 10 nM; with U-251, 30 nM; in the data set on HCT-116, 10 nM. In addition, the MTD in data set [4] amounted to 7.5 mg/kg. In data set [2], this compound gave a pIC50 of 10.70. For the same compound, in the data set on Mus musculus, the Activity is given as less than 10%.

Take `CC(NCc1ccc(/C=C/C(=O)NO)cc1)C12CC3CC(CC1C3)C2` (stereo unspecified): the GI50 stood at 30 nM in the data set on NCI-H460 [1], 50 nM with U-251 and 30 nM in the data set on HCT-116. The same compound showed a pIC50 in data set [2] of 10.52.

Regarding `O=C(/C=C/c1ccc(CNC23CC4CC(CC(C4)C2)C3)cc1)NO`, the GI50 in the data set on NCI-H460 [1] is 2800 nM; with U-251, 2700 nM; with HCT-116, 500 nM. Moreover, in data set [2], the pIC50 is 7.15.

`CCOC12CC3CC(CC(NCc4ccc(/C=C/C(=O)NO)cc4)(C3)C1)C2`: the GI50 in the data set with NCI-H460 [1] turned out to be 6000 nM; in the data set with U-251, 2800 nM; in the data set on HCT-116, 1000 nM. In data set [2], this compound showed a pIC50 of 6.34.

For `COC12CC3CC(CC(NCc4ccc(/C=C/C(=O)NO)cc4)(C3)C1)C2`, the GI50 in the data set on NCI-H460 [1] is 7000 nM; in the data set with U-251, 7000 nM; in the data set with HCT-116 it was 1600 nM. In data set [2], this compound showed a pIC50 of 6.59.

Turning to `O=C(/C=C/c1ccc(CNC23CC4CC(CC(O)(C4)C2)C3)cc1)NO`, the GI50 turned out to be 8000 nM in the data set on NCI-H460 [1], 4200 nM with U-251 and 3000 nM in the data set with HCT-116. For the same compound, the pIC50 in data set [2] was 6.60.

Take `O=C(/C=C/c1ccc(CNC23CC4CC(CC(CO)(C4)C2)C3)cc1)NO`: the GI50 with NCI-H460 [1] came to 9500 nM; with U-251, 6000 nM; in the data set on HCT-116, 2800 nM. This compound also gave a pIC50 in data set [2] of 6.62.

For the compound `O=C(/C=C/c1ccc(CNC23CC4CC(C2)CC(c2ccccc2)(C4)C3)cc1)NO`, the GI50 in the data set on NCI-H460 [1] amounted to 5000 nM; in the data set on U-251 it was 3200 nM; with HCT-116, 2200 nM. In data set [2], this compound showed a pIC50 of 6.36.

With `O=C(CCCCCCC(=O)Nc1ccccc1)NO` [VORINOSTAT], the values for the GI50 in the data set with NCI-H460 [1], in the data set on U-251 and in the data set on HCT-116 were 1000 nM, 2000 nM and 1000 nM, respectively.

The term GI50 denotes the concentration at which growth is held to half of that of the control. Higher therefore signals lower sensitivity of the cells. Usually pIC50 stands for the IC50 on a negative log10 scale, so that one unit is a factor of ten.
